Results published in patent US6914066B2, “1,2-annelated quinoline derivatives” (Janssen Pharmaceutica N.V., priority 1998, dated 2005).
Where a name gives a salt, the structure may show the parent alone.

Q: With `Cn1cncc1C(O)(c1ccc(Cl)cc1)c1ccc2c(c1)c(-c1cccc(Cl)c1)c(C(=O)O)c1nnnn12` (centres unmarked) (as salt: hydrochloride) [Comp 53] as the compound, how does the melting point read?
A: > 260 °C

Q: Which melting point does the source give for `Cn1cncc1C(O)(c1ccc(Cl)cc1)c1ccc2c(c1)c(-c1cccc(Cl)c1)c(CO)c1nnnn12` (centres unmarked) (as salt: hydrochloride) [Comp 82] here?
A: > 280 °C

Q: With `Cn1cncc1C(OCCO)(c1ccc(Cl)cc1)c1ccc2c(c1)c(-c1cccc(Cl)c1)cc1nnnn12` (centres unmarked) (hydrate or solvate) [Comp 41] as the compound, how does the melting point read?
A: 150 °C

Q: With `Fc1ccc(C(c2ccc3c(c2)c(-c2ccccc2)cc2nccn23)n2ccnc2)cc1` (racemic) (hydrate or solvate) [Comp 3, (±)-7-[(4fluorophenyl)(1H-imidazol-1-yl)methyl]-5-phenylimidazo[1,2-a]quinoline ethanedioate(2:3).hemihydrate] as the compound, how does the melting point read?
A: 204.3 °C

Q: With `O=c1[nH]nc2cc(-c3ccccc3)c3cc(C(c4ccc(Cl)cc4)n4ccnc4)ccc3n12` (racemic) (hydrate or solvate) [Comp 7, (±)-7-[(4-chlorophenyl)-1H-imidazol-1-ylmethyl]-5-phenyl[1,2,4]triazolo[4,3-a]quinolin-1(2H)-one ethanedioate(1:1).hemihydrate] as the compound, how does the melting point read?
A: 198.3 °C

Q: For `Cn1cncc1C(O)(c1ccc(Cl)cc1)c1ccc2c(c1)c(-c1cccc(Cl)c1)cc1cnnn12` (racemic) [Comp 26, (±)-5-(3-chlorophenyl)-α-(4-chlorophenyl)-α-(1-methyl-1H-imidazol-5-yl)-[1,2,3]triazolo[1,5-a]quinoline-7-methanol], which melting point is on record?
A: 222 °C

Q: Which melting point does the source give for `Cn1cncc1C(O)(c1ccc(Cl)cc1)c1ccc2c(c1)c(-c1cccc(Cl)c1)nc1nnnn12` (racemic) [Comp 29, (±)-5-(3-chlorophenyl)-α-(4-chlorophenyl)-α-(1-methyl-1H-imidazol-5-yl)tetrazolo[1,5-a]quinazoline-7-methanol] here?
A: 139 °C

Q: With `Cn1cncc1C(O)(c1ccc(Cl)cc1)c1ccc2c(c1)C(c1cccc(Cl)c1)Nc1nnnn1-2` (racemic) [Comp 30, (±)5-(3-chlorophenyl)-α-(4-chlorophenyl)4,5-dihydro-α-(1-methyl-1H-imidazol-5-yl)tetrazolo[1,5-a]quinazoline-7-methanol] as the compound, how does the melting point read?
A: 212 °C

Q: Which melting point does the source give for `Cn1cncc1C(N)(c1ccc(Cl)cc1)c1ccc2c(c1)c(-c1cccc(Cl)c1)nc1nnnn12` (racemic) [Comp 32, (±)-5-(3-chlorophenyl)-α-(4-chlorophenyl)-α-(1-methyl-1H-imidazol-5-yl)tetrazolo[1,5-a]quinazoline-7-methanamine] here?
A: 159 °C

Q: With `CN1c2nnnn2-c2ccc(C(O)(c3ccc(Cl)cc3)c3cncn3C)cc2C1c1cccc(Cl)c1` (racemic) [Comp 33, (±)-5-(3-chlorophenyl)-α-(4-chlorophenyl)-4,5-dihydro-4methyl-α-(1-methyl-1H-imidazol-5-yl)tetrazolo[1,5-a]quinazoline-7-methanol] as the compound, how does the melting point read?
A: 235 °C

Q: Which melting point does the source give for `Cn1cncc1C(N)(c1ccc(Cl)cc1)c1ccc2c(c1)c(-c1cccc(Cl)c1)cc1nnnn12` (centres unmarked) [Comp 27] here?
A: 172 °C

Q: For `Cn1cncc1C(N)(c1ccc(Cl)cc1)c1ccc2c(c1)c(-c1cccc(Cl)c1)cc1nnnn12` (centres unmarked) [Comp 28], which melting point is on record?
A: 180 °C

Q: For `CNC(c1ccc(Cl)cc1)(c1ccc2c(c1)c(-c1cccc(Cl)c1)cc1nnnn12)c1cncn1C` (centres unmarked) [Comp 48], which melting point is on record?
A: 167 °C

Q: With `CNc1ncc(C(c2ccc(Cl)cc2)c2ccc3c(c2)c(-c2cccc(Cl)c2)cc2nnnn23)n1C` (centres unmarked) [Comp 49] as the compound, how does the melting point read?
A: 206 °C

Q: With `Cn1cncc1C(N)(c1ccc(Cl)cc1)c1ccc2c(c1)c(-c1cccc(Cl)c1)c(C(N)=O)c1nnnn12` (centres unmarked) [Comp 77] as the compound, how does the melting point read?
A: > 250 °C

Q: Which melting point does the source give for `Cn1cncc1C(O)(c1ccc(Cl)cc1)c1ccc2c(c1)c(-c1cccc(Cl)c1)c(C(N)=O)c1nnnn12` (centres unmarked) [Comp 80] here?
A: > 250 °C

Q: For `Cn1cncc1C(c1ccc(Cl)cc1)c1ccc2c(c1)c(-c1cccc(Cl)c1)cc1nnnn12` (centres unmarked) [Comp 94], which melting point is on record?
A: 166 °C

Q: With `CCOC(=O)c1cn2c(cc(-c3cccc(Cl)c3)c3cc(C(O)(c4ccc(Cl)cc4)c4cncn4C)ccc32)n1` (centres unmarked) [Comp 95] as the compound, how does the melting point read?
A: 143 °C

Q: For `Cn1cncc1C(NO)(c1ccc(Cl)cc1)c1ccc2c(c1)c(-c1cccc(Cl)c1)cc1cnnn12` (centres unmarked) [Comp 98], which melting point is on record?
A: 191 °C

Q: Which melting point does the source give for `CNCC(=O)NC(c1ccc(Cl)cc1)(c1ccc2c(c1)c(-c1cccc(Cl)c1)cc1nnnn12)c1cncn1C` (centres unmarked) [Comp 121] here?
A: 224 °C
